Test results as given in PubChem BioAssay AID248 (DTP/NCI, 2004).
Several values for one entry are separate records, joined by “and”; a condition that tells them apart may be missing. Identical values can stand only once. Inconclusive results and toxic doses are left out. No stated cut-off is given here; in the data, active means T/C of 150% or more; inactive means T/C below 125%.

Tested on: L1210 leukemia ip in BDF1 mice, survival T/C
Assay: NCI In Vivo Anticancer Drug Screen. Data for tumor model L1210 Leukemia (intraperitoneal) in B6D2F1 (BDF1) mice
Conditions: endpoint: mean survival time, higher = longer survival
In short: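 Transplanted-tumor mice were given test agent; controls received vehicle only. Survival readings from the two groups were divided (treated over control).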

[1] = dose: 20.0 mg/kg/injection, schedule: Q01DX001 (ip), vehicle: saline
[2] = dose: 40.0 mg/kg/injection, schedule: Q01DX001 (ip), vehicle: saline
[3] = dose: 100.0 mg/kg/injection, schedule: Q01DX001 (ip), vehicle: saline
[4] = dose: 100.0 mg/kg/injection, schedule: Q04DX003 (ip), vehicle: Klucel (hydroxypropylcellulose) (HPC)
[5] = dose: 200.0 mg/kg/injection, schedule: Q04DX003 (ip), vehicle: Klucel (hydroxypropylcellulose) (HPC)
[6] = dose: 50.0 mg/kg/injection, schedule: Q01DX009 (ip), vehicle: saline
[7] = dose: 100.0 mg/kg/injection, schedule: Q01DX001 (ip), vehicle: carboxymethylcellulose (CMC)
[8] = dose: 100.0 mg/kg/injection, schedule: Q01DX009 (ip), vehicle: saline
[9] = dose: 200.0 mg/kg/injection, schedule: Q01DX001 (ip), vehicle: carboxymethylcellulose (CMC)
[10] = dose: 200.0 mg/kg/injection, schedule: Q01DX009 (ip), vehicle: saline
[11] = dose: 400.0 mg/kg/injection, schedule: Q01DX001 (ip), vehicle: carboxymethylcellulose (CMC)
[12] = dose: 100.0 mg/kg/injection, schedule: Q04DX003 (ip), vehicle: saline with Tween-80
[13] = dose: 200.0 mg/kg/injection, schedule: Q04DX003 (ip), vehicle: saline with Tween-80
[14] = dose: 400.0 mg/kg/injection, schedule: Q04DX003 (ip), vehicle: saline with Tween-80
[15] = dose: 100.0 mg/kg/injection, schedule: Q01DX009 (ip), vehicle: Klucel (hydroxypropylcellulose) (HPC)
[16] = dose: 200.0 mg/kg/injection, schedule: Q01DX009 (ip), vehicle: Klucel (hydroxypropylcellulose) (HPC)
[17] = dose: 400.0 mg/kg/injection, schedule: Q01DX009 (ip), vehicle: Klucel (hydroxypropylcellulose) (HPC)
[18] = dose: 400.0 mg/kg/injection, schedule: Q04DX003 (ip), vehicle: Klucel (hydroxypropylcellulose) (HPC)
[19] = dose: 200.0 mg/kg/injection, schedule: Q01DX001 (ip), vehicle: saline
[20] = dose: 400.0 mg/kg/injection, schedule: Q01DX001 (ip), vehicle: saline

Measured: T/C

Cc1ccc(C(C)C)c(OCC(O)Cn2ccnc2)c1 (stereo unspecified)
inactive: [1] 103 % of control | [2] 101 % of control | dose: 80.0 mg/kg/injection, schedule: Q01DX001 (ip), vehicle: saline 88 % of control | [3] 94 % of control

CCCCCCCCC(=O)Nc1ccc(O)cc1
inactive: dose: 100.0 mg/kg/injection, schedule: Q01DX009 (ip), vehicle: gum acacia 97 % of control | dose: 100.0 mg/kg/injection, schedule: Q04DX003 (ip), vehicle: gum acacia 104 % of control | dose: 200.0 mg/kg/injection, schedule: Q01DX009 (ip), vehicle: gum acacia 105 % of control | dose: 200.0 mg/kg/injection, schedule: Q04DX003 (ip), vehicle: gum acacia 88 % of control | dose: 400.0 mg/kg/injection, schedule: Q01DX009 (ip), vehicle: gum acacia 112 % of control | dose: 400.0 mg/kg/injection, schedule: Q04DX003 (ip), vehicle: gum acacia 102 % of control

NNc1n[nH]c(=O)n1N
inactive: [4] 113 % of control | [5] 100 % of control

CC1CCCC[N-]1.CC1CCCC[N-]1.N#C[S-].N#C[S-].[Cu] (stereo unspecified)
inactive: dose: 5.0 mg/kg/injection, schedule: Q01DX001 (ip), vehicle: saline 94 % of control | dose: 10.0 mg/kg/injection, schedule: Q01DX001 (ip), vehicle: saline 86 % of control | [1] 91 % of control | [2] 100 % of control

Cc1ccc(S(=O)(=O)Cc2ccccc2)cc1
inactive: dose: 50.0 mg/kg/injection, schedule: Q01DX001 (ip), vehicle: carboxymethylcellulose (CMC) 103 % of control | [6] 103 % of control | [7] 103 % of control | [8] 99 % of control | dose: 100.0 mg/kg/injection, schedule: Q04DX002 (ip), vehicle: Klucel (hydroxypropylcellulose) (HPC) 100 % of control | [9] 103 % of control | [10] 94 % of control | dose: 200.0 mg/kg/injection, schedule: Q04DX002 (ip), vehicle: Klucel (hydroxypropylcellulose) (HPC) 106 % of control | [11] 97 % of control | dose: 400.0 mg/kg/injection, schedule: Q04DX002 (ip), vehicle: Klucel (hydroxypropylcellulose) (HPC) 95 % of control

C/C(=C1\C(=O)Nc2ccccc21)c1ccco1
inactive: [12] 101 % of control | [13] 104 % of control | [14] 104 % of control

O=C(O)C1=CCC=CC1
inactive: [12] 98 % of control | [13] 109 % of control | [14] 106 % of control

O=C(N/N=C/NN/C=N/NC(=O)c1ccncc1)c1ccncc1
inactive: dose: 75.0 mg/kg/injection, schedule: Q01DX001 (ip), vehicle: saline 101 % of control | dose: 150.0 mg/kg/injection, schedule: Q01DX001 (ip), vehicle: saline 100 % of control

CCC[CH2][Sn]([CH2]CCC)([CH2]CCC)[CH2]CC(N)=O
inactive: [6] 96 % of control and 106 % of control | [8] 96 % of control and 106 % of control | [10] 101 % of control

Cc1cccc(C)c1/[N+]([O-])=C/c1ccc(Cl)cc1
inactive: dose: 100.0 mg/kg/injection, schedule: Q01DX001 (ip), vehicle: Klucel (hydroxypropylcellulose) (HPC) 101 % of control | dose: 200.0 mg/kg/injection, schedule: Q01DX001 (ip), vehicle: Klucel (hydroxypropylcellulose) (HPC) 98 % of control | dose: 400.0 mg/kg/injection, schedule: Q01DX001 (ip), vehicle: Klucel (hydroxypropylcellulose) (HPC) 108 % of control

CN(C)c1ccc(C=Nc2ccc3c(c2)Cc2ccccc2-3)cc1
inactive: [15] 97 % of control | [4] 94 % of control | [16] 95 % of control | [5] 107 % of control | [17] 90 % of control | [18] 97 % of control

COC(=O)c1cc(Cl)c(C(=O)OC)cc1Cl
inactive: [4] 90 % of control | [5] 98 % of control | [18] 102 % of control

CCc1ccccc1N/N=C(\Cl)C(C)=O
inactive: dose: 6.25 mg/kg/injection, schedule: Q01DX009 (ip), vehicle: saline 106 % of control | dose: 12.5 mg/kg/injection, schedule: Q01DX009 (ip), vehicle: saline 106 % of control | dose: 25.0 mg/kg/injection, schedule: Q01DX009 (ip), vehicle: saline 95 % of control

N#CS
inactive: [6] 102 % of control | [8] 95 % of control | [10] 98 % of control

Cc1c(C)c2cccc(C)c2[nH]c1=O
inactive: [3] 95 % of control | [19] 95 % of control | [20] 103 % of control

CCSC1OC(C(COC(C)=O)OC(C)=O)C(OC(C)=O)C1NC(C)=S (stereo unspecified)
inactive: dose: 50.0 mg/kg/injection, schedule: Q01DX001 (ip), vehicle: saline 97 % of control | [3] 103 % of control | [19] 103 % of control | [20] 100 % of control

COc1ccc(CC[n+]2ccc(C#N)c(C(C)=O)c2)cc1OC
inactive: dose: 75.0 mg/kg/injection, schedule: Q01DX001 (ip), vehicle: carboxymethylcellulose (CMC) 106 % of control | dose: 150.0 mg/kg/injection, schedule: Q01DX001 (ip), vehicle: carboxymethylcellulose (CMC) 105 % of control

COC(=O)c1cc(C)n(C)c(=O)c1CNS(=O)(=O)c1ccc(C)cc1
inactive: dose: 100.0 mg/kg/injection, schedule: Q01DX009 (ip), vehicle: saline with Tween-80 99 % of control | [12] 97 % of control | dose: 200.0 mg/kg/injection, schedule: Q01DX009 (ip), vehicle: saline with Tween-80 100 % of control | [13] 105 % of control | dose: 400.0 mg/kg/injection, schedule: Q01DX009 (ip), vehicle: saline with Tween-80 99 % of control | [14] 108 % of control

C/C(=N\O)c1ccccc1C
inactive: [4] 101 % of control | [5] 106 % of control | [18] 93 % of control

CCC(Cl)COP(=O)(OCC(Cl)CC)C(C(C)C)P(=O)(OCC(Cl)CC)OCC(Cl)CC (stereo unspecified)
inactive: dose: 100.0 mg/kg/injection, schedule: Q04DX002 (ip), vehicle: saline with Tween-80 96 % of control | dose: 200.0 mg/kg/injection, schedule: Q04DX002 (ip), vehicle: saline with Tween-80 100 % of control | dose: 400.0 mg/kg/injection, schedule: Q04DX002 (ip), vehicle: saline with Tween-80 89 % of control

CN(C)CC(=O)Nc1cc(Cl)ccc1Oc1ccc(Cl)cc1
inactive: [12] 94 % of control | [13] 100 % of control | [14] 100 % of control

O=C(CBr)c1cccc2c1ccc1ccccc12
inactive: dose: 1.56 mg/kg/injection, schedule: Q01DX009 (ip), vehicle: other 100 % of control | dose: 3.13 mg/kg/injection, schedule: Q01DX009 (ip), vehicle: other 95 % of control | dose: 6.25 mg/kg/injection, schedule: Q01DX009 (ip), vehicle: other 95 % of control and 98 % of control | dose: 12.5 mg/kg/injection, schedule: Q01DX005 (ip), vehicle: other 101 % of control | dose: 12.5 mg/kg/injection, schedule: Q04DX002 (ip), vehicle: other 102 % of control | dose: 25.0 mg/kg/injection, schedule: Q01DX005 (ip), vehicle: other 104 % of control | dose: 25.0 mg/kg/injection, schedule: Q04DX002 (ip), vehicle: other 91 % of control | dose: 50.0 mg/kg/injection, schedule: Q04DX002 (ip), vehicle: other 102 % of control

O=C(COC(=O)c1c(Cl)c(Cl)c(Cl)c(Cl)c1C(=O)O)c1ccc(-c2ccccc2)cc1
inactive: [3] 94 % of control | [19] 102 % of control | [20] 91 % of control

O=C1c2ccccc2-c2cc(Br)c(N=C(NO)C(F)(F)F)cc21
inactive: [7] 115 % of control | [9] 105 % of control | [11] 108 % of control

CCCCCCCCCCCCCCCCCC(=O)OCCCCCCC
inactive: [15] 102 % of control | [16] 102 % of control | [17] 112 % of control

CCc1ccc(NC(=O)NC(C)C)cc1
inactive: dose: 50.0 mg/kg/injection, schedule: Q01DX009 (ip), vehicle: Klucel (hydroxypropylcellulose) (HPC) 113 % of control | [15] 91 % of control | [4] 103 % of control | [16] 103 % of control | [5] 92 % of control

CCC1([N+](=O)[O-])COP(=O)(OC(=O)c2ccc([N+](=O)[O-])cc2)OC1 (stereo unspecified)
inactive: [3] 91 % of control | [19] 91 % of control | [20] 92 % of control
